Data published in patent US6603046B1, “Bis-aromatic a,β-unsaturated ketones” (Lica Pharmaceuticals A/S, priority 1992, dated 2003).
Converted amounts (≈) assume the structure as drawn. “And” between values parts separate entries of the source, which are not always exact repeats. Equal entries are not always repeated.

Key:
L. major promastigotes = L. major promastigotes from 4-days cultures, 3H-thymidine uptake (Examples 5, 14); format: cell-based, Leishmania major; details: Leishmania major, Table 14.1, read-out: percentage inhibition of promastigotes (upper figure)
In short: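 Promastigotes harvested on day 4 of culture were exposed to compound, then pulsed with 100 μC 3H-thymidine for a further 18 h. Cells were collected on filter paper, washed, and incorporated radioactivity counted by scintillation.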

[1] = system: human lymphocytes, neutrophils, and monocytes; experiment: Trypan blue dye exclusion method; format: cell-based; details: 20 μg/ml
Description: Trypan blue dye exclusion method. This is a standard method used to determine cell viability. The assay is performed by incubating a given cell suspension with trypan blue for various periods of time after which the cells are examined under microscope. Dead cells will take up the dye and therefore show a blue colour. Percent viability is determined by counting at least a total of 200 cells.

[2] = system: P. yoelii (strain not characterized); experiment: P. yoelii (strain not characterized) infection in mice, parasitemia, drug i.p. (Example 16); format: in vivo, BALB/c mice; details: 5 mg per kg twice daily for 8 days
L. gormanii = experiment: microbe, parasite or virus in culture; format: cell-based; details: Fluoribacter gormanii
[3] = system: Non-haemolytic streptacocci; experiment: MIC, macrodilution (Example 17); format: cell-based, Non-haemolytic streptococci; details: 1 strain
Helicobacter pylori = experiment: MIC on Helicobacter pylori, microaerophilic (Example 18); format: cell-based
Description: Bacteria. 16 recent clinical isolates of Helicobacter pylori from patients with duodenal ulcer or chronic gastritis. […] Staphylococcus aureus ATCC 25923 was used as control strain. The Helicobacter pylori strains were subcultured on chocolate agar plates with cysteine in a microaerophilic atmosphere at 37° C. for 72 hours and kept frozen at −80° C. until assayed. MIC determinations. Macrodilution rows were made with Helicomedia with 2 ml in all vials. […] All dilution rows were inoculated to give a final concentration of 10^5 CFU/ml. The MIC rows were incubated under microaerophilic conditions for […]. […] The control strain Staphylococcus aureus was incubated both aerobically and microaerophilically at 37° C. for 24 hours. All plates were read by the Karber method.

M. tuberculosis = experiment: Radiometric MIC/MBC (Example 19); format: cell-based
Description: 63 strains of mycobacteria were used in this study. The bacteria were grown in Dubos broth media before susceptibility testing. Licochalcone A was isolated as described in Example 1. Licochalcone A was dissolved in dimethyl sulfoxide (DMSO) and diluted in distilled water to the desired concentration.
Susceptibility testing was performed radiometrically by using a BECTEC 460-TB apparatus (Becton Dickinson) in a confined atmosphere (5% CO2). […] The growth was expressed as a numerical value called the growth index (GI) which ranged from 1 to 999. The 7H12 vials were inoculated with 0.1 ml of an appropriately diluted Dubos broth culture to give a final inoculum of about 5×10^4 colony-forming units (CFU) per ml together with 0.1 ml of different concentrations of licochalcone A. The final concentrations of licochalcone A tested ranged from 1.25 μg/ml to 80 μg/ml. A vial without licochalcone A, but with an inoculum diluted 1:100, was included as a control. The final inoculum was determinate by culturing 0.1 ml from the control vial onto one Lowenstein-Jensen slant. The vials were incubated under stationary conditions at 35° C. and growth was monitored by daily GI determination for 7 days. At day 7, 0.1 ml from each vial with a GI reading <30 was cultured onto one Lowenstein-Jensen slant. Colony counts were enumerated after incubation at 35° C. for 3 weeks.

[4] = Serum concentration in rabbits after intravenous administration (Example 20); format: in vivo; details: rabbit
Description: Number of rabbits: 1 rabbit for each group
Dose: 20 mg per kg body weight
Route: Intravenously, administered once
Samples: Samples were drawn from each rabbit twice.
Serum or plasma was diluted with one part of acetonitrile, left for 15 min at 4° C., and centrifugated for 3 min at 10,000 g. An aliquot of the supernatant was chromatographed at 37° C. by HPLC over Spherisorb ODS-2 (5 μm, 120×4.5 mm, Phase Separation LTD, UK) using acetonitrile aqueous acetic acid, 2%, (1:1) as an eluent, flow rate 1.5 ml/min, and UV detection (370 nm and 254 nm).

[5] = system: L. major WHO pentostam resistant strain promastigotes; experiment: Pentostam resistant L. major promastigotes, 3H-thymidine uptake (Example 10); details: 5 μg/ml
[6] = Helicobacter pylori, 16 clinical isolates

C=CC(C)(C)c1cc(/C=C/C(=O)c2ccc(O)cc2)c(OC)cc1O [Licochalcone A, licochalcone A]
inhibition at 0.5 µg/mL (L. major promastigotes; 0.5 μg/ml): 12%
inhibition at 1 µg/mL (L. major promastigotes; 1 μg/ml): 25%
inhibition at 5 µg/mL (L. major promastigotes; 5 μg/ml): 64%
inhibition at 10 µg/mL (L. major promastigotes; 10 μg/ml): 92%
toxic effect, trypan blue dye exclusion [1]: no toxic effect
Parasitemia, mean of 3 mice ([2]; D + 1): 0.03%
Parasitemia, single mice ([2]; D + 1): 0.05% and 0.03% and 0.02%
Parasitemia, mean of 3 mice ([2]; D + 2): 0.2%
Parasitemia, single mice ([2]; D + 2): 0.5% and 0.05% and 0.01%
Parasitemia, mean of 3 mice ([2]; D + 3): 1.0%
Parasitemia, single mice ([2]; D + 3): 2.0% and 0.5%
Parasitemia, mean of 3 mice ([2]; D + 4): 2.5%
Parasitemia, single mice ([2]; D + 4): 4.0% and 1.5% and 2.0%
Parasitemia, mean of 3 mice ([2]; D + 5): 2.5%
Parasitemia, single mice ([2]; D + 5): 4.0% and 1.5% and 2.0%
Parasitemia, mean of 3 mice ([2]; D + 6): 2.3%
Parasitemia, single mice ([2]; D + 6): 4.5% and 2.0% and 1.0%
Parasitemia, mean of 3 mice ([2]; D + 7): 2.2%
Parasitemia, single mice ([2]; D + 7): 4.0% and 1.5% and 1.0%
Parasitemia, mean of 3 mice ([2]; D + 8): 2.3%
Parasitemia, single mice ([2]; D + 8): 4.0% and 1.5%
Parasitemia, mean of 3 mice ([2]; D + 9): 2.2%
Parasitemia, single mice ([2]; D + 9): 4.0% and 1.0% and 1.5%
Parasitemia, mean of 3 mice ([2]; D + 11): 1.7%
Parasitemia, single mice ([2]; D + 11): 2.0% and 1.0%
Parasitemia, mean of 3 mice ([2]; D + 12): 1.7%
Parasitemia, single mice ([2]; D + 12): 2.0% and 1.0%
Parasitemia, mean of 3 mice ([2]; D + 14): 0.7%
Parasitemia, single mice ([2]; D + 14): 1.0% and 0.0%
Parasitemia, mean of 3 mice ([2]; D + 16): 0.03%
Parasitemia, single mice ([2]; D + 16): 0.0% and 0.1%
Parasitemia, mean of 3 mice ([2]; D + 18): 0.0%
Parasitemia, single mice ([2]; D + 18): 0.0%
Parasitemia, mean of 3 mice ([2]; D + 20): 0.0%
Parasitemia, single mice ([2]; D + 20): 0.0%
Parasitemia, mean of 3 mice ([2]; D + 21): 0.0%
Parasitemia, single mice ([2]; D + 21): 0.0%
MIC (L. gormanii): 500 µg/mL (≈ 1480 µM)
MIC [3]: 4 µg/mL (≈ 11.8 µM)
MIC Range (Helicobacter pylori; 16 clinical isolates): 16 to 125 µg/mL
MIC50 (Helicobacter pylori; [6]): 62 µg/mL (≈ 183 µM)
MIC90 (Helicobacter pylori; [6]): 125 µg/mL (≈ 369 µM)
MIC (Helicobacter pylori; Helicobacter pylori, read-out: MIC of the only strain with a low MIC): 16 µg/mL
meanMIC (second line) (M. tuberculosis; n = 2): meanMIC = 40 μg/ml (n = 2)
meanMIC (M. tuberculosis; n = 19): meanMIC = 7.1 μg/ml
rangeMIC (M. tuberculosis; n = 19): rangeMIC = 5-10 μg/ml (n = 19)
concentration at 24 h ([4]; 24 hours after intravenous 20 mg per kg, detection limit): < 50 ng/mL
concentration at 1 h ([4]; one hour following intravenous 20 mg per kg): 350 ng/mL
growth of pentostam resistant parasites [5]: completely inhibited the growth
